Measured values: US11746133B2, “Cell penetrating peptides that inhibit IRF5 nuclear localization” (Rutgers, The State University of New Jersey, priority 2015, dated 2023)
Residues, ends and D or L forms follow the SMILES beside them.

What was measured:
Ramos B cells [1] = assay: Propidium iodide staining to quantify cell death after inhibitor titration; type: cell-based, human; details: 25 uM FITC-conjugated inhibitor, 2 hours
Description: Peptide inhibitor titration and uptake. Ramos B cells or THP1 cells were treated with 0.025, 0.25, 2.5, and 25 uM of FITC conjugated peptide inhibitors for 2 hours. Cells were washed, stained with propidium iodide, and immediately analyzed by flow cytometry for uptake of FITC peptide. For uptake experiments in PBMCs, cells were incubated with 10 uM of either mock, scrambled, N-term′ NLS, or C-term′ NLS FITC conjugated inhibitor for 2 hours. Cells were then washed and blocked as previously outlined, and subsequently stained with CD19-BV510 and CD14-PE (Biolegend Catalog #301806). Cells were fixed, stained with DRAQ5 nuclear dye and analyzed by imagestream for uptake of FITC peptide.
IRF5 Peptide Inhibitors readily enter the cell and have low associated toxicity. IRF5 peptide inhibitors were conjugated to FITC moieties to measure cellular uptake over a dose-dependent response. Ramos B cells were treated with increasing concentrations of FITC-conjugated inhibitor for 2 hours. Cells were washed and subsequently treated with propidium iodide to quantify cell death. […] Cell cycle was measured through propidium iodide incorporation, and quantified through flow cytometry. […] To determine if it would be possible to increase uptake of the inhibitor in B cells, uptake following incubation with 10 uM for 1 hour was measured.

Ramos B cells [2] = assay: Tryphan blue staining for cell viability after 24 hours with inhibitor; type: cell-based, human; details: 25 uM
Description: IRF5 Peptide Inhibitors readily enter the cell and have low associated toxicity. IRF5 peptide inhibitors were conjugated to FITC moieties to measure cellular uptake over a dose-dependent response. Ramos B cells were treated with increasing concentrations of FITC-conjugated inhibitor for 2 hours. Cells were washed and subsequently treated with propidium iodide to quantify cell death. While at the lower doses of 0.025 and 0.25 uM minimal uptake was seen, at 2.5 uM however, greater than 95% of cells were positive for the FITC-conjugated inhibitor (FIG. 1A). In addition, less than 3% of cells stained positive for propidium iodide, indicating low toxicity for the inhibitor at this dose. […] However, no significant increase in uptake was seen between 2.5 uM and 25 uM concentrations of inhibitor. To ensure no impact on cell viability from treatment with the inhibitors, Ramos B cells were treated with varying concentrations of inhibitor as used previously for the titration experiments for 24 hours, and tryphan blue staining was subsequently performed. […] Cell cycle was measured through propidium iodide incorporation, and quantified through flow cytometry. […] To determine if it would be possible to increase uptake of the inhibitor in B cells, uptake following incubation with 10 uM for 1 hour was measured.

IRF5 [3] = molecular target: T1, IRF5 (Homo sapiens, UniProt Q13568); assay: R848-induced IRF5 nuclear translocation in PBMCs by imaging flow cytometry; type: cell-based; details: inhibitor 1 hour, then 500 ng/mL R848 2 hours, vs scrambled control
T1 construct: endogenous in cells; host or cells: healthy-donor human PBMCs; CD14+ monocytes and CD19+ B cells
T1 sequence (Q13568 1-498): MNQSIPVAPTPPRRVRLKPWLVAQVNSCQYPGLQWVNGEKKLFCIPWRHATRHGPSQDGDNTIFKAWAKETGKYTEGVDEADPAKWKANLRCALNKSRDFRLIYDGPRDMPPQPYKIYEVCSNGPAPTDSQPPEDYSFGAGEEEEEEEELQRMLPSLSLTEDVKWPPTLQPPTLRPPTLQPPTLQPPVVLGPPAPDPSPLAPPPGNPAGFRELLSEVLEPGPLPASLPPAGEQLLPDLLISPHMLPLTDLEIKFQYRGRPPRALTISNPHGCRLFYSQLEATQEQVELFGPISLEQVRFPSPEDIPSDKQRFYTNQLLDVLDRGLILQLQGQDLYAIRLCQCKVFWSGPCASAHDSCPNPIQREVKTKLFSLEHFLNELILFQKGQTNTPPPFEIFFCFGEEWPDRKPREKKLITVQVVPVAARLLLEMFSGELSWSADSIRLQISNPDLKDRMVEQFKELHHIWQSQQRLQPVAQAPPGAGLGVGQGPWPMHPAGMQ
Description: FIGS. 2A-E. Peptides (non-FITC-conjugated) inhibit R848-induced IRF5 nuclear translocation. Healthy donor PBMCs were pre-incubated with peptide inhibitors for 1 hour and then stimulated for 2 hours with the Toll-like receptor agonist R848. IRF5 cellular localization was determined in CD14+ monocytes (FIG. 2A) and CD19+ B cells (FIG. 2B) by staining with intracellular IRF5 and DRAQ5. Similarity scores between IRF5 and DRAQ5 were determined on the Amnis Imagestream using IDEAS software. […] Lamin B1 serves as a nuclear protein loading control. Cells were pre-incubated with the indicated inhibitors for 1 hour and then stimulated with LPS for 2 hours. […] IRF5 band intensity was normalized by Lamin B1, and relative fold change of IRF5 in nuclear portion was calculated over PBS treated sample. […]
Imaging Flow Cytometry. […] Nuclear translocation was quantified in the Amnis IDEAS software suite. […] Finally, IRF5 nuclear translocation was determined through use of the similarity score feature contrasting IRF5 staining with DRAQ5 staining. […]
IRF5 peptide inhibitor blocks IRF5 nuclear translocation in both B cells and monocytes. […] As IRF5 has been implicated in the onset of autoimmune diseases in both monocytes and B cells, it was sought to be determined if IRF5 nuclear translocation could be inhibited in both cell populations following stimulation with the TLR7 agonist R848. […]

IRF5 [4] = molecular target: T1, IRF5; assay: Cell fractionation and Western blot of nuclear IRF5 in primary monocytes; type: cell-based; details: isolated primary monocytes, inhibitor then R848 stimulation
Description: FIGS. 2A-E. Peptides (non-FITC-conjugated) inhibit R848-induced IRF5 nuclear translocation. Healthy donor PBMCs were pre-incubated with peptide inhibitors for 1 hour and then stimulated for 2 hours with the Toll-like receptor agonist R848. IRF5 cellular localization was determined in CD14+ monocytes (FIG. 2A) and CD19+ B cells (FIG. 2B) by staining with intracellular IRF5 and DRAQ5. Similarity scores between IRF5 and DRAQ5 were determined on the Amnis Imagestream using IDEAS software. […] Lamin B1 serves as a nuclear protein loading control. […] IRF5 band intensity was normalized by Lamin B1, and relative fold change of IRF5 in nuclear portion was calculated over PBS treated sample. In FIGS. 2A-B and E, the bar on the left is mock (NT) and the bar on the right is R848.
Cell Fractionation. Cells were fractionated according to manufacturer's protocol (Cell Signaling, Cell fractionation kit, #9038). Following fractionation, lysates were sonicated and boiled. Nuclear fraction was analyzed by Western blot as follows: 30 μL of lysate was loaded onto a 3-8% NuPAGE® Novex® Tris-Acetate gel (Life Technologies, #EA0378BOX), and transferred onto a 0.45 μm nitrocellulose membrane (Bio-Rad Laboratories). […] Membrane was incubated with Clarity™ ECL Western Blotting Substrate (Bio-Rad Laboratories) and chemiluminescence detected with a ChemiDoc™ MP Imaging System (Bio-Rad Laboratories). […]

| IRF5 nuclear translocation in B cells (IRF5 [3]) | levels of IRF5 in the nucleus (cell fractionation, Western blot) (IRF5 [4]) | Compound | associated toxicity (propidium iodide) (Ramos B cells [1]) | viability by tryphan blue staining (Ramos B cells [2]) | IRF5 nuclear translocation in monocytes (IRF5 [3]) |
| --- | --- | --- | --- | --- | --- |
|  |  | CC[C@H](C)[C@H](NC(=O)[C@H](CCCCN)NC(=O)[C@@H](NC(=O)[C@H](CCC(N)=O)NC(=O)[C@H](CCCNC(=N)N)NC(=O)[C@@H](N)CC(=O)O)[C@@H](C)CC)C(=O)N[C@@H](Cc1c[nH]c2ccccc12)C(=O)N[C@@H](Cc1ccccc1)C(=O)N[C@@H](CCC(N)=O)C(=O)N[C@@H](CC(N)=O)C(=O)N[C@@H](CCCNC(=N)N)C(=O)N[C@@H](CCCNC(=N)N)C(=O)N[C@@H](CCSC)C(=O)N[C@@H](CCCCN)C(=O)N[C@@H](Cc1c[nH]c2ccccc12)C(=O)N[C@@H](CCCCN)C(=O)N[C@@H](CCCCN)C(=O)N1CCC[C@H]1C(=O)N[C@@H](CCCCN)C(=O)N[C@@H](CCCNC(=N)N)C(=O)N[C@@H](CCCNC(=N)N)C(=O)N[C@@H](CCCNC(=N)N)C(=O)N[C@@H](CC(C)C)C(=O)N[C@H](C(=O)O)C(C)C [Scrambled 5′NLS] (H-DRQIKIWFQNRRMKWKKPKRRRLV-OH; N-terminus and C-terminus assumed) | minimal associated toxicity | decrease in viability |  |
|  |  | CC[C@H](C)[C@H](NC(=O)[C@H](CCCCN)NC(=O)[C@@H](NC(=O)[C@H](CCC(N)=O)NC(=O)[C@H](CCCNC(=N)N)NC(=O)[C@@H](N)CC(=O)O)[C@@H](C)CC)C(=O)N[C@@H](Cc1c[nH]c2ccccc12)C(=O)N[C@@H](Cc1ccccc1)C(=O)N[C@@H](CCC(N)=O)C(=O)N[C@@H](CC(N)=O)C(=O)N[C@@H](CCCNC(=N)N)C(=O)N[C@@H](CCCNC(=N)N)C(=O)N[C@@H](CCSC)C(=O)N[C@@H](CCCCN)C(=O)N[C@@H](Cc1c[nH]c2ccccc12)C(=O)N[C@@H](CCCCN)C(=O)N[C@@H](CCCCN)C(=O)N1CCC[C@H]1C(=O)N[C@@H](CCCNC(=N)N)C(=O)N[C@@H](CCCNC(=N)N)C(=O)N[C@H](C(=O)N[C@@H](CCCNC(=N)N)C(=O)N[C@@H](CC(C)C)C(=O)N[C@@H](CCCCN)C(=O)O)C(C)C [IRF5 5′NLS] (H-DRQIKIWFQNRRMKWKKPRRVRLK-OH) | minimal associated toxicity |  |  |
| no inhibition | Reduced levels of IRF5 | DRQIKIWFQNRRMKWKKPREKKLI [IRF5 3′NLS] |  |  | only slightly reduced nuclear translocation |
